Test results taken from US20240381872A1, “SUBSTITUTED 2,3-DIHYDRO[1,3]THIAZOLO[4,5-B]PYRIDINES, SALTS THEREOF AND THEIR USE AS HERBICIDALLY ACTIVE SUBSTANCES” (BAYER AKTIENGESELLSCHAFT, priority 2021, published 2024).

Legend:
Assay type in all cases: in vivo
[1] = tested on: Abutilon theophrasti (ABUTH); experiment: Herbicidal pre-emergence action, section C (Table C1); details: visual grading after ca. 3 weeks vs untreated controls; for pest or weed control at 320 g/ha: Abutilon theophrasti, pre-emergence, 504 h, read-out: pre-emergence activity against ABUTH in %
Text: (§1) Seeds of mono- and dicotyledonous weed plants and crop plants were sown, in plastic or organic planting pots, in sandy loam and covered with soil. The compounds according to the invention, formulated in the form of wettable powders (WP) or as emulsifiable concentrates (EC), were applied to the surface of the covering soil as aqueous suspension or emulsion, with the addition of 0.5% of an additive, at an application rate of 600 l of water/ha (converted). Following treatment, the pots were placed in a greenhouse and kept under optimum growth conditions for the test plants. The visual grading of the damage to the test plants was carried out after ca. 3 weeks in comparison to untreated controls (herbicidal effect in percent (%): 100% effect=plants have died off, 0% effect=as control plants).

Lolium rigidum (LOLRI) = experiment: Herbicidal post-emergence action, section B (Table B5); details: visual rating about 3 weeks after treatment vs untreated controls
Procedure, shortened: (§2)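 In this greenhouse assay, compounds in WP or EC form were applied post-emergence with 0.5% additive at a water rate of 600 liters per hectare. Treatment took place at the one-leaf stage, and injury was rated visually about 3 weeks later against untreated plants.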

[2] = tested on: Matricaria inodora (MATIN); experiment: Herbicidal pre-emergence action, section C (Table C6); details: visual grading after ca. 3 weeks
Text: as §1

Veronica persica (VERPE) = experiment: Herbicidal post-emergence action, section B (Table B10); details: visual rating about 3 weeks after treatment vs untreated controls
Procedure, shortened: as §2

[3] = tested on: Echinochloa crus-galli (ECHCG); experiment: Herbicidal pre-emergence action, section A (Table A3); details: application rate 320 g/ha, visual grading after ca. 3 weeks vs untreated controls; for pest or weed control at 320 g/ha: Echinochloa crus-galli, pre-emergence, 504 h, read-out: pre-emergence activity against ECHCG in %
Procedure, shortened: (§3)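 Percent herbicidal effect, visually graded about 3 weeks post-treatment against untreated pots, reflects pre-emergence application of WP or EC formulations to the soil surface over seeds sown in sandy loam, using 0.5% additive and 600 l of water per hectare.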

Kochia scoparia (KCHSC) [4] = experiment: Herbicidal post-emergence action, section B (Table B4); details: visual rating about 3 weeks after treatment vs untreated controls
Procedure, shortened: as §2

[5] = tested on: Polygonum convolvulus (POLCO); experiment: Herbicidal pre-emergence action, section C (Table C7); details: visual grading after ca. 3 weeks; for pest or weed control at 320 g/ha: Fallopia convolvulus, pre-emergence, 504 h, read-out: pre-emergence activity against POLCO in %
Procedure, shortened: (§4)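 Seeds sown in sandy loam and covered with soil; compounds formulated as WP or EC were sprayed onto the covering soil as aqueous suspension/emulsion with 0.5% additive at 600 l water/ha. Pots kept in greenhouse under optimum conditions; damage graded visually after ca. 3 weeks versus untreated controls (0–100%).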

Kochia scoparia (KCHSC) [6] = experiment: Herbicidal pre-emergence action, section A (Table A4); details: visual grading after ca. 3 weeks vs untreated controls; for pest or weed control at 1280 g/ha: Bassia scoparia, pre-emergence, 504 h, read-out: pre-emergence activity against KCHSC in %
Procedure, shortened: as §3

[7] = tested on: Alopecurus myosuroides (ALOMY); experiment: Herbicidal pre-emergence action, section C (Table C2); details: visual grading after ca. 3 weeks vs untreated controls; for pest or weed control at 320 g/ha: Alopecurus myosuroides, pre-emergence, 504 h, read-out: pre-emergence activity against ALOMY in %
Procedure, shortened: as §4

[8] = tested on: Abutilon theophrasti (ABUTH); experiment: Herbicidal pre-emergence action, section A (Table A1); details: visual grading after ca. 3 weeks vs untreated controls
Procedure, shortened: as §3

Zea mays (ZEAMX) = experiment: Pre-emergence effects on crop plants, section D (Table D1); details: visual grading after ca. 3 weeks
Procedure, shortened: (§5)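 Pre-emergence soil-surface spray, 320 g/ha or below, 600 l water/ha + 0.5% additive; WP/EC formulations; sandy loam; greenhouse; visual % damage vs untreated at ~3 wk.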

[9] = tested on: Triticum aestivum (TRZAS); experiment: Pre-emergence effects on crop plants, section D (Table D2); details: application rate 80 g/ha; visual grading after ca. 3 weeks
Procedure, shortened: as §5

[10] = Bassia scoparia, post-emergence, 504 h, application rate 1280 g/ha, read-out: post-emergence activity against KCHSC in %
[11] = Tripleurospermum inodorum, pre-emergence, 504 h, application rate 320 g/ha, read-out: pre-emergence activity against MATIN in %

Row | SMILES | pre-emergence activity against ABUTH in % ([1]; application rate 320 g/ha) [%] | post-emergence activity against LOLRI in % (Lolium rigidum (LOLRI); application rate 1280 g/ha) [%] | pre-emergence activity against MATIN in % ([2]; application rate 320 g/ha) [%] | post-emergence activity against VERPE in % (Veronica persica (VERPE); application rate 320 g/ha) [%] | pre-emergence activity against ECHCG in % [3] [%] | post-emergence activity against KCHSC in % (Kochia scoparia (KCHSC) [4]; application rate 320 g/ha) [%] | pre-emergence activity against KCHSC in % (Kochia scoparia (KCHSC) [6]; application rate 1280 g/ha) [%] | pre-emergence activity against ALOMY in % ([7]; application rate 80 g/ha) [%] | pre-emergence activity against ZEAMX in % (crop plant damage) (Zea mays (ZEAMX); application rate 80 g/ha) [%] | pre-emergence activity against POLCO in % ([5]; application rate 320 g/ha) [%] | pre-emergence activity against KCHSC in % (Kochia scoparia (KCHSC) [6]; application rate 320 g/ha) [%] | pest or weed control at 320 g/ha ([1]; application rate 320 g/ha) [%] | pest or weed control at 320 g/ha [3] [%] | pest or weed control at 320 g/ha ([5]; application rate 320 g/ha) [%] | pest or weed control at 1280 g/ha (Kochia scoparia (KCHSC) [6]; application rate 1280 g/ha) [%] | pest or weed control at 320 g/ha ([7]; application rate 320 g/ha) [%] | post-emergence activity against VERPE in % (Veronica persica (VERPE); application rate 1280 g/ha) [%] | pre-emergence activity against TRZAS in % (crop plant damage) [9] [%] | further results
1 | COC(=O)CCC(=O)N1CSc2cc(C)c(-c3ccccc3F)nc21 [Example I-010] | 80 | 90 | 90 | 90 | 100 | 90 | 100 | 90 |  |  |  |  |  |  |  |  |  |  | pre-emergence activity against POLCO in % ([5]; application rate 80 g/ha): 80%; pre-emergence activity against ABUTH in % ([8]; application rate 1280 g/ha): 90%
2 | COCC1(C(=O)N2CSc3cc(C)c(-c4ccccc4F)nc32)CC(Cl)=NO1 (stereo not shown) [Example I-128] |  |  |  | 90 | 100 | 90 |  | 90 | 0 | 90 | 90 |  |  |  |  |  |  |  | pre-emergence activity against ABUTH in % ([1]; application rate 80 g/ha): 80%; post-emergence activity against LOLRI in % (Lolium rigidum (LOLRI); application rate 320 g/ha): 90%; pre-emergence activity against MATIN in % ([2]; application rate 80 g/ha): 80%; pre-emergence activity against ABUTH in % ([8]; application rate 320 g/ha): 90%
3 | Cc1cc2c(nc1-c1ccccc1F)NCS2 [Example I-007, 5-(2-fluorophenyl)-6-methyl-2,3-dihydro[1,3]thiazolo[4,5-b]pyridine] |  |  |  |  |  |  |  |  |  |  |  | 80 | 100 | 80 | 90 | 100 |  |  | pest or weed control at 80 g/ha ([2]; Tripleurospermum inodorum, pre-emergence, 504 h, application rate 80 g/ha, read-out: pre-emergence activity against MATIN in %): 80%; pest or weed control at 320 g/ha (Veronica persica (VERPE); Veronica persica, post-emergence, 504 h, application rate 320 g/ha, read-out: post-emergence activity against VERPE in %): 90%; pest or weed control at 1280 g/ha (Kochia scoparia (KCHSC) [4]; [10]): 90%; pest or weed control at 1280 g/ha ([8]; Abutilon theophrasti, pre-emergence, 504 h, application rate 1280 g/ha, read-out: pre-emergence activity against ABUTH in %): 90%
4 | Cc1cc2c(nc1-c1ccccc1F)N(C(=O)C1(C)CC(Cl)=NO1)CS2 (stereo not shown) [Example I-083] | 90 | 90 | 90 | 90 | 100 | 90 |  | 90 | 10 | 90 | 90 |  |  |  |  |  |  |  | 
5 | CC1(C(=O)N2CSc3cc(Br)c(-c4ccccc4)nc32)CC(Cl)=NO1 (stereo not shown) [Example I-139] | 90 |  | 80 |  | 100 |  | 90 |  |  | 80 |  |  |  |  |  |  | 90 |  | post-emergence activity against KCHSC in % (Kochia scoparia (KCHSC) [4]; application rate 1280 g/ha): 90%; pre-emergence activity against ZEAMX in % (crop plant damage) (Zea mays (ZEAMX); application rate 320 g/ha): 20%; pre-emergence activity against ALOMY in % ([7]; application rate 320 g/ha): 80%; pre-emergence activity against ABUTH in % ([8]; application rate 320 g/ha): 90%
6 | Cc1cc2c(nc1-c1ccccc1)N(C(=O)C1(C)CC(Cl)=NO1)CS2 (stereo not shown) [Example I-088] | 90 | 90 | 90 |  | 100 | 90 | 90 |  |  | 90 |  |  |  |  |  |  | 90 | 0 | pre-emergence activity against ZEAMX in % (crop plant damage) (Zea mays (ZEAMX); application rate 320 g/ha): 0%; pre-emergence activity against ALOMY in % ([7]; application rate 320 g/ha): 90%
7 | CCOCCS(=O)(=O)N1C[S+]([O-])c2cc(C)c(-c3ccccc3F)nc21 (stereo not shown) [Example I-127] |  |  |  |  |  |  |  |  | 20 |  |  | 90 | 100 | 90 | 100 |  |  | 20 | pest or weed control at 1280 g/ha (Lolium rigidum (LOLRI); Lolium rigidum, post-emergence, 504 h, application rate 1280 g/ha, read-out: post-emergence activity against LOLRI in %): 90%; pest or weed control at 320 g/ha [2, 11]: 90%; pest or weed control at 1280 g/ha (Veronica persica (VERPE); Veronica persica, post-emergence, 504 h, application rate 1280 g/ha, read-out: post-emergence activity against VERPE in %): 90%; pest or weed control at 320 g/ha (Kochia scoparia (KCHSC) [4]; Bassia scoparia, post-emergence, 504 h, application rate 320 g/ha, read-out: post-emergence activity against KCHSC in %): 90%
8 | CC1(C(=O)N2CSc3cc(Br)c(-c4ccccc4Cl)nc32)CC(Cl)=NO1 (stereo not shown) [Example I-141, [6-bromo-5-(2-chlorophenyl)[1,3]thiazolo[4,5-b]pyridin-3(2H)-yl](3-chloro-5-methyl-4,5-dihydro-1,2-oxazol-5-yl)methanone] |  |  |  |  |  |  |  |  | 0 |  |  | 90 | 100 | 80 | 100 | 80 |  | 0 | pest or weed control at 1280 g/ha (Kochia scoparia (KCHSC) [4]; [10]): 90%; pest or weed control at 320 g/ha ([8]; Abutilon theophrasti, pre-emergence, 504 h, application rate 320 g/ha, read-out: pre-emergence activity against ABUTH in %): 100%
9 | Cc1ccccc1-c1nc2c(cc1C)SCN2C(=O)C1(C)CC(Cl)=NO1 (stereo not shown) [Example I-137] | 90 |  | 90 |  | 100 | 90 |  | 80 | 20 | 80 | 90 |  |  |  |  |  | 90 | 0 | pre-emergence activity against ABUTH in % ([8]; application rate 1280 g/ha): 100%
10 | Cc1cc2c(nc1-c1ccccc1Cl)NCS2 [Example I-049, 5-(2-chlorophenyl)-6-methyl-2,3-dihydro[1,3]thiazolo[4,5-b]pyridine] |  |  |  |  |  |  |  |  | 10 |  |  | 80 |  | 80 |  | 100 |  | 20 | pest or weed control at 320 g/ha [2, 11]: 80%
